Experimental findings from ChEMBL document CHEMBL1773033, “Cyclic lactam hybrid α-MSH/Agouti-related protein (AGRP) analogues with nanomolar range binding affinities at the human melanocortin receptors” (Bioorg Med Chem Lett, 2011) are described below.

Structures are written as SMILES. Positions of bridges follow the written chain, without caps; N, C: chain ends. Non-standard residues stand in square brackets, D forms with d. Residues, ends and D or L forms follow the SMILES beside them. 2Nal = N[C@@H](Cc1ccc2ccccc2c1)C(=O)O

Experiment [1] deals with T1, Melanocortin receptor 3 (Homo sapiens, UniProt P41968). Kind of experiment: Displacement of [125I]-NDP-alpha-MSH from human MC3R expressed in HEK293 cells at 10 uM after 40 mins by Wallac 1470 gamma counting relative to Ac-Nle-c[Asp-His-D-Phe-Arg-Trp-Lys]-NH2. Type of experiment: cell-based. (In general: Loss of bound radioactivity is the signal in a displacement assay; it reports binding, not function.)

In experiment [2] the target is T2, Melanocyte-stimulating hormone receptor (Homo sapiens, UniProt Q01726). Kind of experiment: Displacement of [125I]-NDP-alpha-MSH from human MC1R expressed in HEK293 cells after 40 mins by Wallac 1470 gamma counting. In kind it is cell-based.
Target sequence in this assay (Q01726 whole entry): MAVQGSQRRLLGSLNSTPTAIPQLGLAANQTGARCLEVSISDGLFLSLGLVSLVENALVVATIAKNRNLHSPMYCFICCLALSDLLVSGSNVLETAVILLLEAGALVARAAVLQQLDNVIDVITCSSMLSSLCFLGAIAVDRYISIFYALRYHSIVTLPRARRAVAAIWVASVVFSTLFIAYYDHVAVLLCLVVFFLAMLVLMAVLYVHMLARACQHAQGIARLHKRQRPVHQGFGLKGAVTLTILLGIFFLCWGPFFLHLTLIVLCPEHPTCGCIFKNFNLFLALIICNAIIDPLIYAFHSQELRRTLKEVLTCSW
The target in experiment [3] is T3, Melanocortin receptor 5 (Homo sapiens, UniProt P33032). Nature of the experiment: Agonist activity at human MC5R expressed in HEK293 cells assessed as increase in intracellular cAMP level at 10 uM after 3 mins by luminescence counter relative to Ac-Nle-c[Asp-His-D-Phe-Arg-Trp-Lys]-NH2. In kind it is functional, cell-based. On the technique in general: Changes in cAMP serve as a functional read-out for many G protein-coupled receptors.

Experiment [4] deals with T4, Melanocortin receptor 4 (Homo sapiens, UniProt P32245). Nature of the experiment: Displacement of [125I]-NDP-alpha-MSH from human MC4R expressed in HEK293 cells at 10 uM after 40 mins by Wallac 1470 gamma counting relative to Ac-Nle-c[Asp-His-D-Phe-Arg-Trp-Lys]-NH2. In kind it is cell-based.
In experiment [5] the target is T2, Melanocyte-stimulating hormone receptor. Kind of experiment: Agonist activity at human MC1R expressed in HEK293 cells assessed as increase in intracellular cAMP accumulation. In kind it is functional, cell-based.
Target sequence in this assay (Q01726 whole entry): as above
In experiment [6] the target is T1, Melanocortin receptor 3. Kind of experiment: Agonist activity at human MC3R expressed in HEK293 cells assessed as intracellular cAMP accumulation. In kind it is functional, cell-based.
In experiment [7] the target is T4, Melanocortin receptor 4. Kind of experiment: Agonist activity at human MC4R expressed in HEK293 cells assessed as intracellular cAMP accumulation. Type of experiment: functional, cell-based.
In experiment [8] the target is T2, Melanocyte-stimulating hormone receptor. Kind of experiment: Agonist activity at human MC1R expressed in HEK293 cells assessed as increase in intracellular cAMP level at 10 uM after 3 mins by luminescence counter relative to Ac-Nle-c[Asp-His-D-Phe-Arg-Trp-Lys]-NH2. In kind it is functional, cell-based.
Target sequence in this assay (Q01726 whole entry, looked up): as the sequence (Q01726 whole entry) above
In experiment [9] the target is T3, Melanocortin receptor 5. Kind of experiment: Displacement of [125I]-NDP-alpha-MSH from human MC5R expressed in HEK293 cells after 40 mins by Wallac 1470 gamma counting. In kind it is cell-based.
In experiment [10] the target is T1, Melanocortin receptor 3. Kind of experiment: Displacement of [125I]-NDP-alpha-MSH from human MC3R expressed in HEK293 cells after 40 mins by Wallac 1470 gamma counting. In kind it is cell-based.
Experiment [11] concerns the target T4, Melanocortin receptor 4. Nature of the experiment: Displacement of [125I]-NDP-alpha-MSH from human MC4R expressed in HEK293 cells after 40 mins by Wallac 1470 gamma counting. Type of experiment: cell-based.
For experiment [12], the target named is T3, Melanocortin receptor 5. Kind of experiment: Agonist activity at human MC5R expressed in HEK293 cells assessed as intracellular cAMP accumulation. In kind it is functional, cell-based.
The target of experiment [13] is T1, Melanocortin receptor 3. Kind of experiment: Agonist activity at human MC3R expressed in HEK293 cells assessed as increase in intracellular cAMP level at 10 uM after 3 mins by luminescence counter relative to Ac-Nle-c[Asp-His-D-Phe-Arg-Trp-Lys]-NH2. In kind it is functional, cell-based.
In experiment [14] the target is T4, Melanocortin receptor 4. Nature of the experiment: Agonist activity at human MC4R expressed in HEK293 cells assessed as increase in intracellular cAMP level at 10 uM after 3 mins by luminescence counter relative to Ac-Nle-c[Asp-His-D-Phe-Arg-Trp-Lys]-NH2. In kind it is functional, cell-based.
For experiment [15], the target named is T3, Melanocortin receptor 5. Nature of the experiment: Displacement of [125I]-NDP-alpha-MSH from human MC5R expressed in HEK293 cells at 10 uM after 40 mins by Wallac 1470 gamma counting relative to Ac-Nle-c[Asp-His-D-Phe-Arg-Trp-Lys]-NH2. In kind it is cell-based.
For experiment [16], the target named is T2, Melanocyte-stimulating hormone receptor. Nature of the experiment: Displacement of [125I]-NDP-alpha-MSH from human MC1R expressed in HEK293 cells at 10 uM after 40 mins by Wallac 1470 gamma counting relative to Ac-Nle-c[Asp-His-D-Phe-Arg-Trp-Lys]-NH2. In kind it is cell-based.
Target sequence in this assay (Q01726 whole entry, looked up): as the sequence (Q01726 whole entry) above

T4 sequence (P32245 whole entry): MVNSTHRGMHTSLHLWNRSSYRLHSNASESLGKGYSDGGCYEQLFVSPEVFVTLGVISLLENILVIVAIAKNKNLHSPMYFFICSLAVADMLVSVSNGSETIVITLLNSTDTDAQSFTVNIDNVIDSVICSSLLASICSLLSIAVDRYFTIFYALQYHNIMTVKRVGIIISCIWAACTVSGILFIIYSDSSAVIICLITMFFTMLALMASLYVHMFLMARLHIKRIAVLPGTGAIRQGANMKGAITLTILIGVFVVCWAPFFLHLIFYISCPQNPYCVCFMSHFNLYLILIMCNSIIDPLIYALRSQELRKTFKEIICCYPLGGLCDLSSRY
T3 sequence (P33032 whole entry): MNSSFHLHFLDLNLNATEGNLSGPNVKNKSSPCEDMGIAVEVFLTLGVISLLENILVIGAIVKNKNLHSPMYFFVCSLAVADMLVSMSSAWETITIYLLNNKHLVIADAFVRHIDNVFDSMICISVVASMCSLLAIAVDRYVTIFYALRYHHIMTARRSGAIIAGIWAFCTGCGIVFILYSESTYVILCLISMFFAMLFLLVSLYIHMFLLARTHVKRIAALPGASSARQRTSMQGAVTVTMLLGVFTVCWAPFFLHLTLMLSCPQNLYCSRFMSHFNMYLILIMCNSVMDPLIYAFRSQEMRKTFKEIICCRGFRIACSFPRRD
T1 sequence (P41968 whole entry): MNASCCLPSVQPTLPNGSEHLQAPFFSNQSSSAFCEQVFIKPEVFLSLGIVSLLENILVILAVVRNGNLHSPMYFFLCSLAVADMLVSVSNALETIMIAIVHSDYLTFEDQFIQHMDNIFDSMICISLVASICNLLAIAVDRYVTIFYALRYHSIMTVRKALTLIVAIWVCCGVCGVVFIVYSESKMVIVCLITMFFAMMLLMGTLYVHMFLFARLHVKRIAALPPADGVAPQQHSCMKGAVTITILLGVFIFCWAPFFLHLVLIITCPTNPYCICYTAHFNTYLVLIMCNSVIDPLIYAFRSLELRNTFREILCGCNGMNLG

In the case of `C[C@@H]1NC(=O)[C@@H](CCC(N)=O)NC(=O)[C@H](Cc2ccccc2)NC(=O)[C@H](Cc2c[nH]c3ccccc23)NC(=O)[C@H](CCCNC(=N)N)NC(=O)CC[C@@H](C(N)=O)NC(=O)[C@H](Cc2ccccc2)NC1=O` (RWF[dQ]AFE-NH2; lactam N-7), the Activity in experiment [1], in experiment [3], in experiment [4] and in experiment [8] was 0% in each case. Further, the IC50 entry in experiment [2], in experiment [9], in experiment [10] and in experiment [11] was “Not Active” each time. For the same molecule, the EC50 entry in experiment [5], in [6], in experiment [7] and in experiment [12] was “Not Active” each time.

`CC(=O)N[C@H]1CC(=O)NCCCC[C@@H](C(N)=O)NC(=O)[C@@H](CC(N)=O)NC(=O)[C@H](Cc2ccccc2)NC(=O)[C@H](Cc2c[nH]c3ccccc23)NC(=O)[C@H](CCCNC(=N)N)NC1=O` (Ac-DRWF[dN]K-NH2; lactam 1-6): the Activity in [1], in experiment [3], in experiment [4], in [13], in experiment [14] and in [15] was 0% each time. Besides, the Activity in [8] and in experiment [16] was 0% throughout. In addition, the IC50 entry in experiment [2], in experiment [9], in [10] and in experiment [11] was “Not Active” throughout. For the same molecule, the EC50 result in experiment [5], in experiment [6], in experiment [7] and in experiment [12] was “Not Active” in each case.

Turning to `C[C@@H]1NC(=O)[C@@H](CC(N)=O)NC(=O)[C@H](Cc2ccc3ccccc3c2)NC(=O)[C@H](Cc2c[nH]c3ccccc23)NC(=O)[C@H](CCCNC(=N)N)NC(=O)CC[C@@H](C(N)=O)NC(=O)[C@H](Cc2ccccc2)NC1=O` (RW[2Nal][dN]AFE-NH2; lactam N-7), the Activity in experiment [1], in experiment [14], in experiment [15] and in experiment [8] was 0% each time. Also, the IC50 entry in experiment [2], in [9], in [10] and in experiment [11] was “Not Active” throughout. Moreover, the EC50 result in experiment [5], in [6], in experiment [7] and in experiment [12] was “Not Active” each time.

In the case of `C[C@@H]1NC(=O)[C@H](Cc2cnc[nH]2)NC(=O)[C@@H](Cc2ccccc2)NC(=O)[C@H](Cc2c[nH]c3ccccc23)NC(=O)[C@H](CCCNC(=N)N)NC(=O)CC[C@@H](C(N)=O)NC(=O)[C@H](Cc2ccccc2)NC1=O` (RW[dF]HAFE-NH2; lactam N-7), the IC50 result in [2], in [9], in experiment [10] and in experiment [11] was “Not Active” in each case. Further, the Activity in experiment [3], in experiment [4], in experiment [13] and in [8] was 0% in each case. Further, the EC50 entry in experiment [5], in experiment [6], in experiment [7] and in experiment [12] was “Not Active” throughout.
